For 30 compounds, IC50 results are on record in patent US8637509B2, “Azaindazoles” (GlaxoSmithKline LLC, priority 2010, dated 2014).

This assay has as its target T1, EZH2 (Homo sapiens, UniProt Q15910).
T1 construct: GRITS37108
Put plainly: EZH2 methyltransferase SPA assay (3H-SAM, Hela nucleosomes). In kind it is biochemical.

By IC50 is commonly meant the concentration at which inhibition is half-maximal.

Read-outs that look alike come from different tables or passages of the source.

T1 sequence (Q15910 whole entry): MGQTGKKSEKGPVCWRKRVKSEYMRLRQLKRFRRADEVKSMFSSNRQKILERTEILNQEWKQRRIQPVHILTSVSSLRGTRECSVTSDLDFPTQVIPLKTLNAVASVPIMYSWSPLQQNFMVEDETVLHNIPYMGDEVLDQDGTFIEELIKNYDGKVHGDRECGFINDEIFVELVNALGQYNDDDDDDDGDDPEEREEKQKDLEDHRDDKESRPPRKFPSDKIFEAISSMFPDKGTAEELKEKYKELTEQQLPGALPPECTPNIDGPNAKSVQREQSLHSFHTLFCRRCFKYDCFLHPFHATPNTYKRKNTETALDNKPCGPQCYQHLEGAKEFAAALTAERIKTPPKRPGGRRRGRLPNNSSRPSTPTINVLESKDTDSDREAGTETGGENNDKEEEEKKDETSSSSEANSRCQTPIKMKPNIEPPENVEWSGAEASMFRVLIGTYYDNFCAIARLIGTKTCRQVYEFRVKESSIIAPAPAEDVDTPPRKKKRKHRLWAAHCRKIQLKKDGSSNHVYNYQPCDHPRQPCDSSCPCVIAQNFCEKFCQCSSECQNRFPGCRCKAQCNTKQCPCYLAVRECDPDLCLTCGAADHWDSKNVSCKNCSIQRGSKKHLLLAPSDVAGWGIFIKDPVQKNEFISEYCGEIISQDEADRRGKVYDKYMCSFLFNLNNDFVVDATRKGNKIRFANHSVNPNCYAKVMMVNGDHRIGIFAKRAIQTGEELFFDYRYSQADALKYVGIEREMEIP
T1 sequence (O75530 whole entry partner): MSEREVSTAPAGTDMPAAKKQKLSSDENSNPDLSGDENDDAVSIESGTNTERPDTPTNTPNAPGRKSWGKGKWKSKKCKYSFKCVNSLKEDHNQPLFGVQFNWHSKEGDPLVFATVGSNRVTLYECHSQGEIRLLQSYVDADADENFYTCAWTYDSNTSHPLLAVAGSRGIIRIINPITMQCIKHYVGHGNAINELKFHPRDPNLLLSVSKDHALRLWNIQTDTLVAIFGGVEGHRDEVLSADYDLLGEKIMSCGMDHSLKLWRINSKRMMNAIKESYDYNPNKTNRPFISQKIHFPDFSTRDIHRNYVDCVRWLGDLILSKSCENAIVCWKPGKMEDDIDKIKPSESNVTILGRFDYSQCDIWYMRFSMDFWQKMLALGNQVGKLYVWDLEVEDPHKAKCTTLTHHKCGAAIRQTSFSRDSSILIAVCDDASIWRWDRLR
T1 sequence (Q15022 whole entry partner): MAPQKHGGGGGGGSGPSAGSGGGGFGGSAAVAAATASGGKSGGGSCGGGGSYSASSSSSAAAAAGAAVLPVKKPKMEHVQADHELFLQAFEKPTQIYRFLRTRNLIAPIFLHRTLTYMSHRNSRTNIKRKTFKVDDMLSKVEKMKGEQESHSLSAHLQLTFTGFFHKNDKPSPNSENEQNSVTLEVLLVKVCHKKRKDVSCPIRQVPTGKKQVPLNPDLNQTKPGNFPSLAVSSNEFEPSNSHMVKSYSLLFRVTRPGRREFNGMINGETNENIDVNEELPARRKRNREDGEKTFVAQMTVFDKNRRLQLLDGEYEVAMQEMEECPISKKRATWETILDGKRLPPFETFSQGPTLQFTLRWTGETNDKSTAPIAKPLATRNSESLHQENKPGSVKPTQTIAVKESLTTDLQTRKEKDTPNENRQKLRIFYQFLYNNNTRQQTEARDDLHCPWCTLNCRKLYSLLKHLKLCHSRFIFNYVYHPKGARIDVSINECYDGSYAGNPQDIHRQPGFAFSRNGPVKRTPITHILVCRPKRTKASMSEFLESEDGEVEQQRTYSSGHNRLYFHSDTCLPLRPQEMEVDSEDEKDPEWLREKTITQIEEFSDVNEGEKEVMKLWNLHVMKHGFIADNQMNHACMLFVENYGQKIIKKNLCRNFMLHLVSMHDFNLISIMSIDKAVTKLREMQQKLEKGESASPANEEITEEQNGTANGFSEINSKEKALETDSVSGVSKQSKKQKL

As to “6-{[4-(Aminocarbonyl)phenyl]amino}-N-[(4,6-dimethyl-2-oxo-1,2-dihydro-3-pyridinyl)methyl]-1-(1-methylethyl)-1H-pyrazolo[3,4-b]pyridine-4-carboxamide [Ex 86]”, the IC50 (10 nM EZH2, 7 μg/ml Hela nucleosomes, 2-parameter IC50 fit, single-point-in-time values, read-out: IC50) is 142 nM.

Regarding `Cc1cc(C)c(CNC(=O)c2cc(Cl)nc3c2cnn3C(C)C)c(=O)[nH]1` [Ex 1, 6-Chloro-N-[(4,6-dimethyl-2-oxo-1,2-dihydro-3-pyridinyl)methyl]-1-(1-methylethyl)-1H-pyrazolo[3,4-b]pyridine-4-carboxamide], the half-maximal inhibitory concentration (IC50) (read-out: IC50) was determined as 475 nM.

In the case of `Cc1cc(C)c(CNC(=O)c2cc(Cl)nc3c2c(C)nn3C(C)C)c(=O)[nH]1` [Ex 2, 6-Chloro-N-[(4,6-dimethyl-2-oxo-1,2-dihydro-3-pyridinyl)methyl]-3-methyl-1-(1-methylethyl)-1H-pyrazolo[3,4-b]pyridine-4-carboxamide], the IC50 (read-out: IC50) came out at 806 nM.

Regarding `Cc1cc(C)c(CNC(=O)c2cc(Oc3ccncc3)nc3c2cnn3C(C)C)c(=O)[nH]1` [Ex 4, N-[(4,6-Dimethyl-2-oxo-1,2-dihydro-3-pyridinyl)methyl]-1-(1-methylethyl)-6-(4-pyridinyloxy)-1H-pyrazolo[3,4-b]pyridine-4-carboxamide], the IC50 (read-out: IC50) amounted to 116 nM.

As for `C=CCNc1cc(C(=O)NCc2c(C)cc(C)[nH]c2=O)c2cnn(C(C)C)c2n1` [Ex 5, N-[(4,6-Dimethyl-2-oxo-1,2-dihydro-3-pyridinyl)methyl]-1-(1-methylethyl)-6-(2-propen-1-ylamino)-1H-pyrazolo[3,4-b]pyridine-4-carboxamide], the IC50 (read-out: IC50) worked out at 705 nM.

Turning to `Cc1cc(C)c(CNC(=O)c2cc(N)nc3c2cnn3C(C)C)c(=O)[nH]1` [Ex 6, 6-Amino-N-[(4,6-dimethyl-2-oxo-1,2-dihydro-3-pyridinyl)methyl]-1-(1-methylethyl)-1H-pyrazolo[3,4-b]pyridine-4-carboxamide], where the note is “read-out: IC50”, the IC50 was 695 nM.

As to `CCCc1cc(C)c(CNC(=O)c2cc(C3CC3)nc3c2cnn3C(C)C)c(=O)[nH]1` [Ex 7, 6-Cyclopropyl-1-(1-methylethyl)-N-[(4-methyl-2-oxo-6-propyl-1,2-dihydro-3-pyridinyl)methyl]-1H-pyrazolo[3,4-b]pyridine-4-carboxamide], the 50% inhibitory concentration (IC50) (read-out: IC50) was 1300 nM.

As for `Cc1cc(C(C)C)c(CNC(=O)c2cc(C3CC3)nc3c2cnn3C(C)C)c(=O)[nH]1` [Ex 8, 6-Cyclopropyl-1-(1-methylethyl)-N-{[6-methyl-4-(1-methylethyl)-2-oxo-1,2-dihydro-3-pyridinyl]methyl}-1H-pyrazolo[3,4-b]pyridine-4-carboxamide], where the note is “read-out: IC50”, the IC50 is 167 nM.

Consider `CCCc1cc(C)c(CNC(=O)c2cc(-c3ccncc3)nc3c2cnn3C(C)C)c(=O)[nH]1` [Ex 9, 1-(1-Methylethyl)-N-[(4-methyl-2-oxo-6-propyl-1,2-dihydro-3-pyridinyl)methyl]-6-(4-pyridinyl)-1H-pyrazolo[3,4-b]pyridine-4-carboxamide], for which, for the setting “read-out: IC50”, the IC50 was found to be 1310 nM.

For `CCc1cc(C)c(CNC(=O)c2cc(-c3ccncc3)nc3c2cnn3C(C)C)c(=O)[nH]1` [Ex 10, N-[(6-Ethyl-4-methyl-2-oxo-1,2-dihydro-3-pyridinyl)methyl]-1-(1-methylethyl)-6-(4-pyridinyl)-1H-pyrazolo[3,4-b]pyridine-4-carboxamide], the IC50 (read-out: IC50) came to 569 nM.

The compound `CCCc1cc(C)[nH]c(=O)c1CNC(=O)c1cc(-c2ccncc2)nc2c1cnn2C(C)C` [Ex 11, 1-(1-Methylethyl)-N-[(6-methyl-2-oxo-4-propyl-1,2-dihydro-3-pyridinyl)methyl]-6-(4-pyridinyl)-1H-pyrazolo[3,4-b]pyridine-4-carboxamide] showed an IC50 of 18 nM.

Turning to `Cc1cc(C(C)C)c(CNC(=O)c2cc(-c3ccncc3)nc3c2cnn3C(C)C)c(=O)[nH]1` [Ex 12, 1-(1-Methylethyl)-N-{[6-methyl-4-(1-methylethyl)-2-oxo-1,2-dihydro-3-pyridinyl]methyl}-6-(4-pyridinyl)-1H-pyrazolo[3,4-b]pyridine-4-carboxamide], the half-inhibitory concentration (IC50) (read-out: IC50) was 55 nM.

Turning to `CCCc1cc(C)[nH]c(=O)c1CNC(=O)c1cc(C2CC2)nc2c1cnn2C(C)C` [Ex 13, 6-Cyclopropyl-1-(1-methylethyl)-N-[(6-methyl-2-oxo-4-propyl-1,2-dihydro-3-pyridinyl)methyl]-1H-pyrazolo[3,4-b]pyridine-4-carboxamide], the IC50 (read-out: IC50) turned out to be 55 nM.

As for `Cc1cc(-c2ccccc2)c(CNC(=O)c2cc(-c3ccncc3)nc3c2cnn3C(C)C)c(=O)[nH]1` [Ex 14, 1-(1-Methylethyl)-N-[(6-methyl-2-oxo-4-phenyl-1,2-dihydro-3-pyridinyl)methyl]-6-(4-pyridinyl)-1H-pyrazolo[3,4-b]pyridine-4-carboxamide], the half-inhibitory concentration (IC50) (read-out: IC50) turned out to be 735 nM.

Regarding `Cc1cc(C2CCCCC2)c(CNC(=O)c2cc(-c3ccncc3)nc3c2cnn3C(C)C)c(=O)[nH]1` [Ex 15, N-[(4-Cyclohexyl-6-methyl-2-oxo-1,2-dihydro-3-pyridinyl)methyl]-1-(1-methylethyl)-6-(4-pyridinyl)-1H-pyrazolo[3,4-b]pyridine-4-carboxamide], under “read-out: IC50”, the IC50 worked out at 179 nM.

For the compound `Cc1cc(C2CCCCC2)c(CNC(=O)c2cc(C3CC3)nc3c2cnn3C(C)C)c(=O)[nH]1` [Ex 16, N-[(4-Cyclohexyl-6-methyl-2-oxo-1,2-dihydro-3-pyridinyl)methyl]-6-cyclopropyl-1-(1-methylethyl)-1H-pyrazolo[3,4-b]pyridine-4-carboxamide], where the note is “read-out: IC50”, the IC50 turned out to be 105 nM.

Take `Cc1cc(-c2ccccc2)c(CNC(=O)c2cc(C3CC3)nc3c2cnn3C(C)C)c(=O)[nH]1` [Ex 17, 6-Cyclopropyl-1-(1-methylethyl)-N-[(6-methyl-2-oxo-4-phenyl-1,2-dihydro-3-pyridinyl)methyl]-1H-pyrazolo[3,4-b]pyridine-4-carboxamide]: the half-maximal inhibitory concentration (IC50) (read-out: IC50) is 2590 nM.

`Cc1cc(C2CC2)c(CNC(=O)c2cc(-c3ccncc3)nc3c2cnn3C(C)C)c(=O)[nH]1` [Ex 18, N-[(4-Cyclopropyl-6-methyl-2-oxo-1,2-dihydro-3-pyridinyl)methyl]-1-(1-methylethyl)-6-(4-pyridinyl)-1H-pyrazolo[3,4-b]pyridine-4-carboxamide]: the 50% inhibitory concentration (IC50) (read-out: IC50) was found to be 40 nM.

For `Cc1cc(C2CC2)[nH]c(=O)c1CNC(=O)c1cc(C2CC2)nc2c1cnn2C(C)C` [Ex 19, 6-Cyclopropyl-N-[(6-cyclopropyl-4-methyl-2-oxo-1,2-dihydro-3-pyridinyl)methyl]-1-(1-methylethyl)-1H-pyrazolo[3,4-b]pyridine-4-carboxamide], the IC50 (read-out: IC50) came to 3370 nM.

Compound `Cc1[nH]c(=O)c(CNC(=O)c2cc(-c3ccncc3)nc3c2cnn3C(C)C)c(C)c1F` [Ex 20, N-[(5-Fluoro-4,6-dimethyl-2-oxo-1,2-dihydro-3-pyridinyl)methyl]-1-(1-methylethyl)-6-(4-pyridinyl]-1H-pyrazolo[3,4-b]pyridine-4-carboxamide] displayed an IC50 of 4650 nM.

Consider `CCNc1cc(C(=O)NCc2c(C)cc(C)[nH]c2=O)c2cnn(C(C)C)c2n1` [Ex 21, N-[(4,6-Dimethyl-2-oxo-1,2-dihydro-3-pyridinyl)methyl]-6-(ethylamino)-1-(1-methylethyl)-1H-pyrazolo[3,4-b]pyridine-4-carboxamide], for which the IC50 (read-out: IC50) is 1040 nM.

Regarding `Cc1cc(C)c(CNC(=O)c2ccnc3c2cnn3C(C)C)c(=O)[nH]1` [Ex 22, N-[(4,6-Dimethyl-2-oxo-1,2-dihydro-3-pyridinyl)methyl]-1-(1-methylethyl)-1H-pyrazolo[3,4-b]pyridine-4-carboxamide], the IC50 (read-out: IC50) came out at 1360 nM.

`Cc1cc(C(F)(F)F)c(CNC(=O)c2cc(C3CC3)nc3c2cnn3C(C)C)c(=O)[nH]1` [Ex 23, 6-Cyclopropyl-1-(1-methylethyl)-N-{[6-methyl-2-oxo-4-(trifluoromethyl)-1,2-dihydro-3-pyridinyl]methyl}-1H-pyrazolo[3,4-b]pyridine-4-carboxamide]: the IC50 (read-out: IC50) was 1430 nM.

With `Cc1cc(C)c(CNC(=O)c2cc(N(C)C)nc3c2cnn3C(C)C)c(=O)[nH]1` [Ex 24, 6-(Dimethylamino)-N-[(4,6-dimethyl-2-oxo-1,2-dihydro-3-pyridinyl)methyl]-1-(1-methylethyl)-1H-pyrazolo[3,4-b]pyridine-4-carboxamide], under “read-out: IC50”, the IC50 was 873 nM.

As for `Cc1cc(C)c(CNC(=O)c2cc(N3CCCCC3)nc3c2cnn3C(C)C)c(=O)[nH]1` [Ex 25, N-[(4,6-Dimethyl-2-oxo-1,2-dihydro-3-pyridinyl)methyl]-1-(1-methylethyl)-6-(1-piperidinyl)-1H-pyrazolo[3,4-b]pyridine-4-carboxamide], the IC50 (read-out: IC50) stood at 685 nM.

Regarding `Cc1cc(C)c(CNC(=O)c2cc(N3CCOCC3)nc3c2cnn3C(C)C)c(=O)[nH]1` [Ex 26, N-[(4,6-Dimethyl-2-oxo-1,2-dihydro-3-pyridinyl)methyl]-1-(1-methylethyl)-6-(4-morpholinyl)-1H-pyrazolo[3,4-b]pyridine-4-carboxamide], the IC50 (read-out: IC50) came out at 673 nM.

Regarding `Cc1cc(C)c(CNC(=O)c2cc(-c3ccc(N4CCN(C)CC4)nc3)nc3c2c(C)nn3C(C)C)c(=O)[nH]1` [Ex 27, N-[(4,6-Dimethyl-2-oxo-1,2-dihydro-3-pyridinyl)methyl]-3-methyl-1-(1-methylethyl)-6-[6-(4-methyl-1-piperazinyl)-3-pyridinyl]-1H-pyrazolo[3,4-b]pyridine-4-carboxamide], the IC50 (read-out: IC50) came to 24 nM.

`Cc1cc(C)c(CNC(=O)c2cc(N3CCNCC3)nc3c2cnn3C(C)C)c(=O)[nH]1` [Ex 28, N-[(4,6-Dimethyl-2-oxo-1,2-dihydro-3-pyridinyl)methyl]-1-(1-methylethyl)-6-(1-piperazinyl)-1H-pyrazolo[3,4-b]pyridine-4-carboxamide]: the IC50 (read-out: IC50) came out at 348 nM.

With `Cc1cc(C)c(CNC(=O)c2cc(C#CC(C)(C)O)nc3c2cnn3C(C)C)c(=O)[nH]1` [Ex 29, N-[(4,6-Dimethyl-2-oxo-1,2-dihydro-3-pyridinyl)methyl]-6-(3-hydroxy-3-methyl-1-butyn-1-yl)-1-(1-methylethyl)-1H-pyrazolo[3,4-b]pyridine-4-carboxamide], the IC50 (read-out: IC50) turned out to be 234 nM.

Consider `Cc1cc(C)c(CNC(=O)c2cc(-c3ccc4[nH]nc(C)c4c3)nc3c2cnn3C(C)C)c(=O)[nH]1` [Ex 30, N-[(4,6-Dimethyl-2-oxo-1,2-dihydro-3-pyridinyl)methyl]-1-(1-methylethyl)-6-(3-methyl-1H-indazol-5-yl)-1H-pyrazolo[3,4-b]pyridine-4-carboxamide], for which the IC50 (read-out: IC50) was 154 nM.
